Assay results from BindingDB's records for patent US20230399327 (Adlai Nortye Biopharma Co., 2023).

Molecular target: Mitogen-activated protein kinase kinase kinase kinase 1 (Homo sapiens, UniProt Q92918)
Assay: Detection of Compound's Ability to Inhibit HPK1 Kinase Activity Assay
Experimental: The specific operation is as follows: configure the enzymatic reaction system buffer (10 mM MOPS, pH 7.2, 5 mM β-glycerol-phosphate, 10 mM MgCl2, 0.8 mM EDTA, 2 mM EGTA, 0.1 mM DTT); the test compound (1 mM the compound stock solution in DMSO) was diluted with buffer to the highest concentration of 60 uM (containing 6% DMSO), and the compound with a concentration of 60 μM was initially diluted 5 times with a buffer containing 6% DMSO for a total of 8 points of gradient concentration; then dilute HPK1 kinase to 30 nM in buffer. Add 2 μl of HPK1 kinase diluent to each well of a Greiner 384-well microplate (Cat. No. 784075), and add 2 μl of buffer to the control well; add 1 μl of the diluted compound to the reaction well after brief centrifugation, and add 1 μl buffer solution containing 6% DMSO to the control well; after short centrifugation, place in a 25° C. constant temperature incubator (Shanghai Yiheng Scientific Instrument Co., Ltd., Cat. No.: LRH-150) and incubate for 20 minutes. Add 3 μl of reaction substrate (10 μM MBP and 20 μM ATP dissolved in distilled water) to each well, briefly centrifuge and incubate in a constant temperature incubator at 25° C. for 60 min, and use ADP-Glo Kinase Assay Kit to detect the enzymatic reaction activity, ADP-Glo Kinase Assay Kit detection is carried out according to the operating instructions of the kit. Data are described using the half maximal inhibitory

Mitogen-activated protein kinase kinase kinase kinase 1, sequence (Q92918 whole entry): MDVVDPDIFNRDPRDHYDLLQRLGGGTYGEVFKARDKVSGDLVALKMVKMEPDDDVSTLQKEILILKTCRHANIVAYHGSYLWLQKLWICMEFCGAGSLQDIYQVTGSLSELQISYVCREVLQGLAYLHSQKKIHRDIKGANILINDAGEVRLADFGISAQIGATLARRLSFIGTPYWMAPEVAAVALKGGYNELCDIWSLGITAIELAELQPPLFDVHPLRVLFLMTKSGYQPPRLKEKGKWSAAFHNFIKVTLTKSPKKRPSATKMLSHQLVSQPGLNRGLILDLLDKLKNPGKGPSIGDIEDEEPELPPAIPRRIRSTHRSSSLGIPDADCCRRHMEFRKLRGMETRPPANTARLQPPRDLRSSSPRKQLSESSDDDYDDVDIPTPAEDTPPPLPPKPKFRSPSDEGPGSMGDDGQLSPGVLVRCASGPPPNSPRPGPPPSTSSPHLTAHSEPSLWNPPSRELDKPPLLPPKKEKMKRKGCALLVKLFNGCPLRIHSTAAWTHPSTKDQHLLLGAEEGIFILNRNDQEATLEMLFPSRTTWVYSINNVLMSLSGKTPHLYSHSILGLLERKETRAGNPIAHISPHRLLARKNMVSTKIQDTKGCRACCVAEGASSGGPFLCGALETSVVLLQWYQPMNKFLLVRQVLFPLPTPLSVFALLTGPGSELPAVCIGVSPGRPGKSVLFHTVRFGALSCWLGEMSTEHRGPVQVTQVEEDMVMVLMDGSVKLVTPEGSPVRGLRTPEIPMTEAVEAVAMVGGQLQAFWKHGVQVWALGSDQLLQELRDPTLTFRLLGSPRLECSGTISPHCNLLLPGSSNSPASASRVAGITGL

| IC50 [pM] | SMILES |
| --- | --- |
| < 100 | COc1nc2c(cc1Nc1ncc3cccc(-c4ccccc4)c3n1)CN(C)CC2 [US20230399327, Example 1] |
| < 100 | COc1nc2c(cc1Nc1ncc3cccc(-c4cnn5ccccc45)c3n1)CN(C)CC2 [US20230399327, Example 2] |
| 8310 | COc1nc2c(cc1Nc1ncc3ccnc(C4=CCOCC4)c3n1)CN(C)CC2 [US20230399327, Example 26] |
| 290 | CN1CCc2[nH]c(=O)c(Nc3ncc4ccnc(NCC(C)(C)CO)c4n3)cc2C1 [US20230399327, Example 70] |
| 21200 | CN1CCc2[nH]c(=O)c(Nc3ncc4ccnc(N5CCSCC5)c4n3)cc2C1 [US20230399327, Example 72] |
| 410 | CN1CCc2[nH]c(=O)c(Nc3ncc4ccnc(N5CCCCCC5)c4n3)cc2C1 [US20230399327, Example 73] |
| < 100 | C[C@@H]1CCCCN1c1nccc2cnc(Nc3cc4c([nH]c3=O)CCN(C)C4)nc12 [US20230399327, Example 76] |
| < 100 | CN1CCc2[nH]c(=O)c(Nc3ncc4ccnc(NCC5(C)CC5)c4n3)cc2C1 [US20230399327, Example 77] |
| < 100 | CN1CCc2c(cc(Nc3ncc4ccnc(N5CCC(F)(F)CC5)c4n3)c(=O)n2C)C1 [US20230399327, Example 79] |
| 25300 | CN1CCc2c(cc(Nc3ncc4ccnc(N5CCC(F)(F)C5)c4n3)c(=O)n2C)C1 [US20230399327, Example 85] |
| < 100 | CCOc1nc2c(cc1Nc1ncc3ccnc(N[C@H](CO)C(C)C)c3n1)CN(C)CC2 [US20230399327, Example 89] |
| 21500 | COc1nc2c(cc1Nc1ncc3ccnc(N[C@H](CO)C(C)C)c3n1)CN(C)CC2 [US20230399327, Example 91] |
| 18100 | CCOc1nc2c(cc1Nc1ncc3ccnc(N[C@@H]4CCC[C@H]4O)c3n1)CN(C)CC2 [US20230399327, Example 95] |
| 440 | CCOc1nc2c(cc1Nc1ncc3ccnc(N[C@H]4CC[C@@H](O)C4)c3n1)CN(C)CC2 [US20230399327, Example 98] |
| < 100 | COc1nc2c(cc1Nc1ncc3ccnc(N4CCC[C@H]4CO)c3n1)CN(C)CC2 [US20230399327, Example 101] |
| 15400 | CCOc1nc2c(cc1Nc1ncc3ccnc(N4CCC[C@H]4CO)c3n1)CN(C)CC2 [US20230399327, Example 106] |
| < 100 | COc1nc2c(cc1Nc1ncc3ccnc(N4CC(F)(F)C[C@H]4CO)c3n1)CN(C)CC2 [US20230399327, Example 108] |
| < 100 | COc1nc2c(cc1Nc1ncc3ccnc(NC(C)(C)CO)c3n1)CN(C)CC2 [US20230399327, Example 109] |
| < 100 | CC[C@H](CO)Nc1nccc2cnc(Nc3cc4c(nc3OC)CCN(C)C4)nc12 [US20230399327, Example 110] |
| < 100 | COc1nc2c(cc1Nc1ncc3ccnc(NCC(C)(C)O)c3n1)CN(C)CC2 [US20230399327, Example 111] |
| < 100 | COc1cc2c(cc1Nc1ncc3ccnc(N[C@@H](CO)C(C)C)c3n1)CN(C)CC2 [US20230399327, Example 112] |
